Assay in all cases: growth of human tumour cells (NCI), 48 h
The subject of experiment [1] is SK-OV-3 ovarian.
The test system of experiment [2] is NCI-H522 lung.
In experiment [3] the test system is SR leukemia.
Experiment [4] deals with UACC-257 melanoma.
Experiment [5] concerns SK-MEL-5 melanoma.
The subject of experiment [6] is NCI-H23 lung.
Experiment [7] relates to KM12 colon.
In experiment [8] the test system is A498 renal.
For experiment [9], the system named is MALME-3M melanoma.
Experiment [10] deals with SF-539 CNS.

The source of these data is PubChem BioAssay (NCI).

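Briefly, cells in 96-well plates were exposed to five compound concentrations for 48 h, and endpoints were estimated by linear interpolation. Abbreviation: GI50, concentration required for 50% inhibition of growth. TGI: concentration producing complete growth inhibition.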

For `CCN1C(=O)N(CC)C2C1NN=c1s/c(=C3\C(=O)N(C)c4ccccc43)c(=O)n12` (stereo not given), the GI50 was 6.03 µM in [1]; 0.609 µM in experiment [2]; 0.382 µM in experiment [3]; 4.2 µM in experiment [4]; 0.837 µM in experiment [5]; 3.24 µM in experiment [6]. Further, the GI50 in [7] is 0.647 µM; in experiment [8], 0.23 µM; in [9], 0.993 µM; in [10], 0.545 µM. The TGI in experiment [1] is greater than 100 µM; in experiment [2] it was 33 µM; in experiment [3], greater than 100 µM; in [4], greater than 100 µM; in experiment [5], greater than 89.2 µM; in experiment [6], greater than 88.1 µM. Besides, the TGI in experiment [7] was greater than 100 µM; in experiment [8] it was 0.908 µM; in experiment [9] it was greater than 100 µM; in experiment [10] it was 3.77 µM.
As to `COc1ccccc1-c1c(C)nn2c(NCc3ccccn3)cc(C)nc12`, the GI50 in [1] is greater than 50 µM; in experiment [2], 21.3 µM; in [3] it was 17 µM; in experiment [4], 11.2 µM; in [5], 14.8 µM; in experiment [6], 48.7 µM. Moreover, the GI50 in experiment [7] was greater than 46.6 µM; in experiment [8], 3.84 µM; in experiment [9], greater than 17.1 µM; in [10], 44.3 µM. For the same molecule, the TGI was greater than 50 µM in [1]; greater than 50 µM in [2]; greater than 50 µM in experiment [3]; greater than 50 µM in experiment [4]; 49.6 µM in experiment [5]; greater than 50 µM in experiment [6]. Further, the TGI in experiment [7], in experiment [8], in experiment [9] and in experiment [10] was greater than 50 µM in each case.
For the molecule `C=CCc1ccc(O)c(-c2cc(C3Oc4c(-c5cc(CC=C)ccc5O)cc(O)cc4[C@@H]3CO)ccc2O)c1` (stereo not given in full), the TGI in experiment [1] is greater than 100 µM; in experiment [2], 38.7 µM; in experiment [3], 47.7 µM; in experiment [4] it was greater than 100 µM; in experiment [5], 65 µM; in [6] it was 76.4 µM. In addition, the TGI is 85.7 µM in experiment [7], 61.5 µM in experiment [8], greater than 100 µM in experiment [9] and 56.3 µM in experiment [10].
Turning to `COC(=O)C(Cc1nc2ccc(Cl)cc2[nH]c1=O)C(=O)C(=O)Nc1ccccc1[N+](=O)[O-]` (stereo not given), the TGI in experiment [1], in experiment [2], in experiment [3], in experiment [4], in experiment [5] and in experiment [6] was greater than 100 µM in each case. The TGI in experiment [7], in experiment [8], in experiment [9] and in [10] was greater than 100 µM each time.
Take `C=C[C@]1(C)C=C2C(=O)[C@@]3(O)OC[C@@]4(CCCC(C)(C)C43O)C2(O)C(O)C1` (stereo not given in full): the GI50 was 23 µM in experiment [1]; 0.631 µM in [2]; 1.97 µM in experiment [3]; 2.06 µM in experiment [4]; 14.5 µM in [5]; 2.71 µM in experiment [6]. In addition, the GI50 in experiment [7] is 13.1 µM; in [8] it was 12.8 µM; in experiment [9], 1.36 µM; in experiment [10], 5.15 µM. Also, the TGI in experiment [1] turned out to be 69.6 µM; in [2], 2.84 µM; in experiment [3], 24.9 µM; in experiment [4], 4.21 µM; in experiment [5], 27.8 µM; in experiment [6], 8.51 µM. Besides, the TGI worked out at 26.8 µM in experiment [7], 25.6 µM in experiment [8], 3.02 µM in experiment [9] and 15.4 µM in experiment [10].
Regarding `COc1ccc2c(c1)C(=O)c1c-2n(CCCN2CCOCC2)c(=O)c2ccccc12`, the GI50 in experiment [1] was 3.27 µM; in [2], 1.52 µM; in experiment [3], 0.579 µM; in experiment [4], 4.46 µM; in experiment [5], 1.37 µM; in experiment [6] it was 2.94 µM. The GI50 in experiment [7] is 3.64 µM; in experiment [8], 1.87 µM; in experiment [9], 3.44 µM; in experiment [10] it was 2.17 µM. For the same molecule, the TGI in experiment [1] was 12.1 µM; in experiment [2], 13.9 µM; in [3], greater than 32.6 µM; in experiment [4], greater than 31.5 µM; in experiment [5], 2.68 µM; in experiment [6] it was 10.1 µM. Further, the TGI amounted to 42.5 µM in [7], 5.48 µM in experiment [8], 18.7 µM in experiment [9] and 5.33 µM in experiment [10].
As for `CC(CCCOC(c1ccccc1)(c1ccccc1)c1ccccc1)OC(=O)Nc1cc([N+](=O)[O-])cc([N+](=O)[O-])c1` (stereo not given), the TGI in [1] was 57.9 µM; in [2] it was 59.5 µM; in [3] it was greater than 100 µM; in experiment [4], 85.1 µM; in experiment [5], 44.6 µM; in experiment [6], 58.7 µM. In addition, the TGI in experiment [7] was greater than 100 µM; in experiment [8], 72.3 µM; in experiment [9], 83.2 µM; in [10] it was greater than 100 µM.
With `O=C(O)c1c[nH]cc1C(=O)O`, the TGI in experiment [1], in experiment [2], in experiment [3], in experiment [4], in experiment [5] and in experiment [6] was greater than 100 µM each time. Further, the TGI in experiment [7], in experiment [8], in [9] and in [10] was greater than 100 µM in each case.
For the molecule `CC(=O)Oc1ccccc1C(=O)C1c2cccc(O)c2C(=O)c2c(O)cccc21`, the TGI in experiment [1] is 1.68 µM; in experiment [2], 3.88 µM; in experiment [3], 0.967 µM; in experiment [4] it was 3.76 µM; in experiment [5], 2.4 µM; in experiment [6], 4.33 µM. The TGI in experiment [7] stood at 1.59 µM; in experiment [8], 7.1 µM; in experiment [9], 4.01 µM; in [10], 1.94 µM.
Consider `COc1cc2cc(Oc3ccc(NC(=O)c4ccc(Cl)c(C(F)(F)F)c4)cc3)c(C)nc2cc1OC`, for which the GI50 in experiment [1] is 66 µM; in experiment [2], 8.78 µM; in experiment [3], 14.3 µM; in [4], 18.2 µM; in experiment [5] it was 10.6 µM; in experiment [6], 9.73 µM. Besides, the GI50 in [7] is 12.3 µM; in [8], 2.42 µM; in experiment [9], 28.6 µM; in experiment [10], 41.3 µM. For the same molecule, the TGI in [1] was greater than 100 µM; in experiment [2], 83.3 µM; in experiment [3] it was greater than 100 µM; in experiment [4], 97.5 µM; in experiment [5], 27.1 µM; in experiment [6], greater than 100 µM. Further, the TGI in experiment [7] is greater than 100 µM; in [8], 86.3 µM; in experiment [9], 95.1 µM; in experiment [10] it was greater than 100 µM.
`Cc1cc(N2CCCC2)nc(N(CCCNc2ccnc3cc(Cl)ccc23)Cc2ccc3c(c2)OCO3)n1`: the GI50 in [1] was 4.98 µM; in experiment [2], 1.66 µM; in experiment [3], 0.152 µM; in experiment [4], 1.84 µM; in experiment [5], 1.53 µM; in [6] it was 2.36 µM. In addition, the GI50 in experiment [7] is 2.73 µM; in experiment [8], 2.44 µM; in experiment [9] it was 1.65 µM; in [10] it was 1.23 µM. Also, the TGI is 20.3 µM in [1]; 3.95 µM in [2]; 0.431 µM in experiment [3]; 3.47 µM in experiment [4]; 2.9 µM in experiment [5]; 15.5 µM in [6]. Further, the TGI is 11 µM in [7], 7.5 µM in experiment [8], 3.2 µM in [9] and 2.6 µM in [10].
As for `CC(=O)NC(CCCN(Cc1ccccc1)C(=O)N(CCCl)N=O)C(=O)NCc1ccccc1` (stereo not given), the TGI was greater than 100 µM in experiment [1]; greater than 80.6 µM in [2]; greater than 88.8 µM in [3]; greater than 100 µM in experiment [4]; greater than 76.7 µM in experiment [5]; greater than 75.1 µM in experiment [6]. For the same molecule, the TGI in experiment [7] is greater than 100 µM; in experiment [8], greater than 72 µM; in experiment [9], greater than 75.6 µM; in experiment [10], 20.6 µM.
As for `CS(=O)(=O)Nc1cc(-c2ccc3ncnc(Nc4ccc5c(cnn5Cc5ccc(F)cc5)c4)c3c2)cnc1Cl`, the GI50 in [1] is 1.54 µM; in experiment [2], 1.79 µM; in experiment [3] it was 1.71 µM; in experiment [4], 2.17 µM; in experiment [5], 1.52 µM; in experiment [6] it was 1.43 µM. The GI50 in [7] is 2.93 µM; in [8], 1.33 µM; in experiment [9] it was 0.441 µM; in experiment [10], 1.5 µM. Moreover, the TGI in experiment [1] is 5.85 µM; in experiment [2] it was 12.8 µM; in experiment [3], 6.73 µM; in experiment [4], 17.9 µM; in experiment [5], 2.89 µM; in experiment [6], 5.43 µM. The TGI stood at 9.72 µM in [7], 3.4 µM in experiment [8], 2.92 µM in experiment [9] and 5.29 µM in experiment [10].
With `N/N=C(\Cc1ccccc1)NN=C(N)N`, the TGI in experiment [1], in experiment [2], in [3], in [4], in experiment [5] and in experiment [6] was greater than 100 µM each time. For the same molecule, the TGI in [7], in experiment [8], in experiment [9] and in [10] was greater than 100 µM throughout.
